The data set has as its system patients with myelofibrosis (MF). As to the kind of experiment: Phase 2 sustained-release clinical trial, haematology and adverse events. As to conditions: human, in vivo, 16 weeks. As to the method: A Phase 2 clinical trial was carried out in patients with myelofibrosis (MF). A total of 41 subjects were enrolled, and spleen volume and total symptom scores were obtained at baseline. Tablets of sustained-release formulation SR-2 (see Example 1) were administered to fasted patients. All patients were treated with 25 mg once daily doses for 8 weeks. After 8 weeks, depending upon the clinical response, the investigator was allowed to (a) maintain the same dose of SR-2, (b) increase the dose to 50 mg once daily, (c) increase the dose to alternating doses of 25 mg and 50 mg, dosed once daily, or (d) switch to treatment with the immediate release formulation.
Data relating to mean platelet count and mean hemoglobin levels (Hgb) is presented below in Table 3 together with comparative data from the COMFORT-I study. […] Data is shown as mean±SD.
Data for adverse events relating to anemia, thrombocytopenia, neutropenia, and all Grade 3 or higher adverse events are compared for the sustained-release and COMFORT-I (immediate-release) studies (see Example 3 and Comparative Example A for descriptions of the studies) in Table 6a. Adverse events are graded according to CTCAE criteria which can be found online at ctep.cancer.gov/protocolDevelopment/electronic_applications/ctc.htm or evs.nci.nih.gov/ftp1/CTCAE/CTCAE_4.03_2010-06-14_QuickReference_5×7.pdf. A Grade 3 adverse event generally corresponds to a reaction that is severe or medically significant, but not immediately life-threatening where hospitalization or prolongation of hospitalization is indicated and where the reaction is disabling to the extent of limiting self care. Higher Grades are 4 (life-threatening requiring urgent intervention) and 5 (death). For anemia, Grade 3 corresponds to Hgb<8.0 g/dL; <4.9 mmol/L; <80 g/L, where a transfusion is indicated. For thrombocytopenia (decreased platelet count), Grade 3 corresponds to <50,000-25,000/mm^3; <50.0-25.0×10^9/L. The sustained-release data was evaluated for patients over the course of 16 weeks. Mean duration of exposure to ruxolitinib in the COMFORT-I was approximately 242 days. Typically, the majority of hematologic adverse events occur within the first few months of therapy as observed in the COMFORT-I study.
The sustained-release data was evaluated for patients over the course of 16 weeks. Mean duration of exposure to ruxolitinib in the COMFORT-I study was approximately 242 days. The vast majority of hematologic adverse events occur within the first few months of therapy as observed in the COMFORT-I study. […] Additionally, the severity of the adverse events is lesser in the sustained-release study.

The results in this text go back to patent US11576865B2, “Sustained-release dosage forms of ruxolitinib” (Incyte Corporation, priority 2012, dated 2023).

With `N#CC[C@H](C1CCCC1)n1cc(-c2ncnc3[nH]ccc23)cn1` [Ruxolitinib, (3R)-3-cyclopentyl-3-[4-(7H-pyrrolo[2,3-d]pyrimidin-4-yl)pyrazol-1-yl]propanenitrile], the “% of Subjects With Any Adverse Events, Any severity” value is given as “(78.0) %”; the “% of Subjects with Anaemia, Any severity” value is “(4.9) %”; the “% of Subjects with Blood and lymphatic system disorders, Any severity” value is “(19.5) %”; the “% of Subjects with Thrombocytopenia, Any severity” value is reported as “(14.6) %”. Also, the “Number of Subjects With Any Adverse Events, Any severity” value worked out at 32; the “Number of Subjects With Any Adverse Events, LT (life threatening)” value was 0; the “Number of Subjects With Any Adverse Events, Mi (mild)” value is 16; the “Number of Subjects With Any Adverse Events, Mo (moderate)” value was determined as 9. The “Number of Subjects With Any Adverse Events, Se (severe)” value stood at 7; the “Number of Subjects with Anaemia, Any severity” value came out at 2; the “Number of Subjects with Anaemia, LT (life threatening)” value stood at 0; the “Number of Subjects with Anaemia, Mi (mild)” value came out at 0. The “Number of Subjects with Anaemia, Mo (moderate)” value turned out to be 2; the “Number of Subjects with Anaemia, Se (severe)” value came out at 0; the “Number of Subjects with Blood and lymphatic system disorders, Any severity” value is recorded as 8; the “Number of Subjects with Blood and lymphatic system disorders, LT (life threatening)” value was found to be 0. Besides, the “Number of Subjects with Blood and lymphatic system disorders, Mi (mild)” value was found to be 3; the “Number of Subjects with Blood and lymphatic system disorders, Mo (moderate)” value was 4; the “Number of Subjects with Blood and lymphatic system disorders, Se (severe)” value is 1; the “Number of Subjects with Thrombocytopenia, Any severity” value was 6. Moreover, the “Number of Subjects with Thrombocytopenia, LT (life threatening)” value stood at 0; the “Number of Subjects with Thrombocytopenia, Mi (mild)” value amounted to 3; the “Number of Subjects with Thrombocytopenia, Mo (moderate)” value is listed as 2; the “Number of Subjects with Thrombocytopenia, Se (severe)” value is recorded as 1.
